{"source": "patent US10758468B2", "about": "“Solubilizer for cosmetic preparations” (Symrise AG, priority 2010, dated 2020)", "assay": "Assessment of turbidity (transparency) of compositions at production and after 3 months storage", "settings": "water to 100; for Assessment of turbidity: Storage at 5° C. / Assessment of turbidity: Storage at 40° C.: after 3 months", "key": {"[1]": {"settings": "0.40 wt. % menthyl lactate, 2.00 Solubilizer U.53787M, 5.00 glycerol"}, "[2]": {"settings": "0.40 wt. % menthyl lactate, 2.00 Solubilizer U.53787M, 5.00 pentane-1,2-diol"}, "[3]": {"settings": "0.50 wt. % menthyl lactate, 2.00 Solubilizer B, 5.00 glycerol"}, "[4]": {"settings": "0.10 wt. % bisabolol, 2.00 Solubilizer U.53787M, 0.50 pentane-1,2-diol"}, "[5]": {"settings": "0.10 wt. % bisabolol, 2.00 Solubilizer U.53787M, 1.00 1,2-propylene glycol"}, "[6]": {"settings": "0.10 wt. % bisabolol, 2.00 Solubilizer U.53787M, 2.50 pentane-1,2-diol"}, "[7]": {"settings": "0.10 wt. % bisabolol, 2.00 Solubilizer U.53787M, 3.00 1,2-propylene glycol"}, "[8]": {"settings": "0.10 wt. % bisabolol, 2.00 Solubilizer U.53787M, 4.00 glycerol"}, "[9]": {"settings": "0.20 wt. % bisabolol, 2.00 Solubilizer A, 5.00 glycerol"}}, "protocol": "The transparency (clarity) of the compositions was determined after 3 months at the constant storage temperature stated in each case."}
{"smiles": "CC1CCC(C(C)C)C(OC(=O)C(C)O)C1", "note": "(stereo not shown) [Frescolat ® ML, menthyl lactate]", "values": [{"measurement": "Assessment of turbidity: Production at 25°", "setting": "[1]", "value": "clear"}, {"measurement": "Assessment of turbidity: Production at 25°", "setting": "[2]", "value": "clear"}, {"measurement": "Assessment of turbidity: Production at 25°", "setting": "[3]", "value": "clear"}, {"measurement": "Assessment of turbidity: Storage at 5° C.", "setting": "[1]", "value": "clear"}, {"measurement": "Assessment of turbidity: Storage at 40° C.", "setting": "[1]", "value": "clear"}, {"measurement": "Assessment of turbidity: Storage at 5° C.", "setting": "[2]", "value": "clear"}, {"measurement": "Assessment of turbidity: Storage at 40° C.", "setting": "[2]", "value": "clear"}, {"measurement": "Assessment of turbidity: Storage at 5° C.", "setting": "[3]", "value": "clear"}, {"measurement": "Assessment of turbidity: Storage at 40° C.", "setting": "[3]", "value": "clear"}]}
{"smiles": "CC(C)=CCC[C@](C)(O)C1CC=C(C)CC1", "note": "(stereo partly shown) [Bisabolol]", "values": [{"measurement": "Assessment of turbidity: Production at 25°", "setting": "[4]", "value": "clear"}, {"measurement": "Assessment of turbidity: Production at 25°", "setting": "[5]", "value": "clear"}, {"measurement": "Assessment of turbidity: Production at 25°", "setting": "[6]", "value": "clear"}, {"measurement": "Assessment of turbidity: Production at 25°", "setting": "[7]", "value": "clear"}, {"measurement": "Assessment of turbidity: Production at 25°", "setting": "[8]", "value": "clear"}, {"measurement": "Assessment of turbidity: Production at 25°", "setting": "[9]", "value": "clear"}, {"measurement": "Assessment of turbidity: Storage at 5° C.", "setting": "[4]", "value": "clear"}, {"measurement": "Assessment of turbidity: Storage at 40° C.", "setting": "[4]", "value": "clear"}, {"measurement": "Assessment of turbidity: Storage at 5° C.", "setting": "[5]", "value": "clear"}, {"measurement": "Assessment of turbidity: Storage at 40° C.", "setting": "[5]", "value": "clear"}, {"measurement": "Assessment of turbidity: Storage at 5° C.", "setting": "[6]", "value": "clear"}, {"measurement": "Assessment of turbidity: Storage at 40° C.", "setting": "[6]", "value": "clear"}, {"measurement": "Assessment of turbidity: Storage at 5° C.", "setting": "[7]", "value": "clear"}, {"measurement": "Assessment of turbidity: Storage at 40° C.", "setting": "[7]", "value": "clear"}, {"measurement": "Assessment of turbidity: Storage at 5° C.", "setting": "[8]", "value": "clear"}, {"measurement": "Assessment of turbidity: Storage at 40° C.", "setting": "[8]", "value": "clear"}, {"measurement": "Assessment of turbidity: Storage at 5° C.", "setting": "[9]", "value": "clear"}, {"measurement": "Assessment of turbidity: Storage at 40° C.", "setting": "[9]", "value": "clear"}]}
{"smiles": "CC(C)(C)C(=O)C(Oc1ccc(Cl)cc1)n1ccnc1", "note": "(stereo not shown) [Crinipan® AD, climbazole]", "values": [{"measurement": "Amount of organic substance incorporated with the composition remaining clear and stable", "setting": "framework formulation: 2.00 wt. % Solubilizer U.53787M, 5.00 glycerol, production at 25°, storage 3 months at 5° C. and 40° C.", "value": 0.10, "unit": "wt. %"}]}
